Measurements as given in patent EP0571593B1, “NEW NON IONIC IODIZED AGENTS FOR X-RAY CONTRASTING, METHOD FOR PREPARING THEM AND GALENICAL COMPOSITIONS CONTAINING THEM” (CENTRO INVESTIGACION JUSTESA IMAGEN S.A., priority 1991, dated 1993).

Tests used:
[1] = Viscosity of aqueous solutions; type: physicochemical
[2] = Iodine content; type: physicochemical; conditions: for Iodine Content (%): comparison table with IOTROLAN
[3] = test system: rat; test: ED50 after intracisternal (i.cis.) administration; type: in vivo
[4] = Osmolality of aqueous solutions; type: physicochemical
[5] = test system: Sprague-Dawley rats; test: Intravenous toxicity, lethal dose for 50% of the animals; type: in vivo; conditions: i.v. via the caudal vein at 2.2ml/min, mortality during seven days

## COCC(=O)Nc1c(I)c(C(=O)NCC(O)CO)c(I)c(C(=O)N(C)CC(=O)N(C)c2c(I)c(C(=O)NC(CO)C(O)CO)c(I)c(C(=O)NC(CO)C(O)CO)c2I)c1I (centres unmarked) [EXAMPLE 9, N,N'-bis-(1-hydroxymethyl-2,3-dihydroxypropyl)-5-{3-[N-(2,3-dihydroxypropyl)carbamoyl]-5-methoxyacetamido-2,4,6-triiodobenzoyl-N-methylaminoacetyl-N-methylamino}-2,4,6-tri-iodoisophthalamide]
[1]
  Viscosity (mPa.S at 300 mg I/ml) 37°C: 8,2 mPa.S
  Viscosity mPa s (30°C) at 300mg I/ml: 8,2 mPa s
[2]
  % Iodine: 49,6%
  Iodine Content (%): 49,6%
[3]
  ED50, rat i.cis. (mg I/kg): 350 mg I/kg
[4]
  Osmolality mosm/kg at 300mg I/ml: 226 mosm/kg
  Osmolality (mOsm/kg at 300 mg I/ml) 37°C: 226 mOsm/kg
[5]
  LD50, rat i.v. (g I/kg): 20-25 g I/kg

## CN(CC(=O)N(C)c1c(I)c(C(=O)NCC(O)CO)c(I)c(C(=O)NCC(O)CO)c1I)C(=O)c1c(I)c(NC(=O)CO)c(I)c(C(=O)NCC(O)CO)c1I (centres unmarked) [EXAMPLE 11, N,N'-bis-(2,3-dihydroxypropyl)-5-{3-[N-(2,3-dihydroxypropyl)carbamoyl]-5-hydroxyacetamido-2,4,6-triiodobenzoyl-N-methylaminoacetyl-N-methylamino}-2,4,6-triiodo isophthalamide]
[1]
  Viscosity (mPa.S at 300 mg I/ml) 37°C: 7,0 mPa.S
  Viscosity mPa s (30°C) at 300mg I/ml: 6,9 mPa s
[2]
  % Iodine: 52%
  Iodine Content (%): 52,1%
[3]
  ED50, rat i.cis. (mg I/kg): 500 mg I/kg
[4]
  Osmolality mosm/kg at 300mg I/ml: 152 mosm/kg
  Osmolality (mOsm/kg at 300 mg I/ml) 37°C: 152 mOsm/kg
[5]
  LD50, rat i.v. (g I/kg): 23 g I/kg

## CC(=O)Nc1c(I)c(C(=O)NCC(O)CO)c(I)c(C(=O)N(CC(=O)Nc2c(I)c(C(=O)NCC(O)CO)c(I)c(C(=O)NCC(O)CO)c2I)CC(O)CO)c1I (centres unmarked) [EXAMPLE 36, N,N-bis-(2,3-dihydroxypropyl)-5-{3-[N-(2,3-dihydroxypropyl)carbamoyl]-5-acetamido-2,4,6-triiodobenzoyl-N-(2,3-dihidroxypropyl)aminoacetamido}-2,4,6-triiodoisophthalamide]
[1]
  Viscosity (mPa.S at 300 mg I/ml) 37°C: 8,3-8,8 mPa.S
  Viscosity mPa s (30°C) at 300mg I/ml: 8,8 mPa s
[2]
  % Iodine: 51%
  Iodine Content (%): 51,0%
[3]
  ED50, rat i.cis. (mg I/kg): 550 mg I/kg
[4]
  Osmolality mosm/kg at 300mg I/ml: 125 mosm/kg
  Osmolality (mOsm/kg at 300 mg I/ml) 37°C: 125 mOsm/kg
[5]
  LD50, rat i.v. (g I/kg): 25-27 g I/kg

## COCC(=O)Nc1c(I)c(C(=O)N(C)CC(=O)N(C)c2c(I)c(C(=O)NCC(O)CO)c(I)c(C(=O)NCC(O)CO)c2I)c(I)c(C(=O)N(CCO)CC(O)CO)c1I (centres unmarked) [EXAMPLE 41, N,N'-bis-(2,3-dihydroxypropyl)-5-{3-[N-(2-hydroxyethyl)-N-(2,3-dihydroxypropyl)carbamoyl]-5-methoxyacetamido-2,4,6-triiodobenzoyl-N-methylaminoacetyl-N-methylamino} --2,4,6-triiodoisophthalamide]
[1]
  Viscosity mPa s (30°C) at 300mg I/ml: 9,0 mPa s
[2]
  % Iodine: 50,0%
[4]
  Osmolality mosm/kg at 300mg I/ml: 135 mosm/kg

## CC(=O)Nc1c(I)c(C(=O)NCC(O)CO)c(I)c(C(=O)N(C)CC(=O)N(C)c2c(I)c(C(=O)N(CCO)CC(O)CO)c(I)c(C(=O)N(CCO)CC(O)CO)c2I)c1I (centres unmarked) [EXAMPLE 42, N,N'-bis-(2-hydroxyethyl)-N,N'-bis-(2,3-dihydroxypropyl)-5-{3-[N-(2,3-dihydroxypropyl)carbamoyl]-5-acetamido-2,4,6-triiodobenzoyl-N-methylaminoacetyl-N-methylamino}-2,4,6-triiodoisophthalamide]
[1]
  Viscosity mPa s (30°C) at 300mg I/ml: 8,8 mPa s
[2]
  % Iodine: 49,6%
[4]
  Osmolality mosm/kg at 300mg I/ml: 180 mosm/kg

## CN(C(=O)CC(=O)N(C)c1c(I)c(C(=O)NC(CO)C(O)CO)c(I)c(C(=O)NC(CO)C(O)CO)c1I)c1c(I)c(C(=O)NC(CO)C(O)CO)c(I)c(C(=O)NC(CO)C(O)CO)c1I (stereo not drawn) [IOTROLAN, N,N'-dimethyl-N,N'-bis[3,5-(l-hydroxymethyl-2,3-dihydroxy-propyl-carbamoyl) -2,4,6-triiodo-phenyl]-diamide of malonic acid, reference compound]
[1]
  Viscosity (mPa.S at 300 mg I/ml) 37°C: 8,1-9,2 mPa.S
[2]
  Iodine Content (%): 47%
[3]
  ED50, rat i.cis. (mg I/kg): 315 mg I/kg
[4]
  Osmolality (mOsm/kg at 300 mg I/ml) 37°C: 320 mOsm/kg
[5]
  LD50, rat i.v. (g I/kg): 25-28 g I/kg
